In experiment [1] the test system is nuclear p52 (non-canonical NF-κB signaling). Kind of experiment: High content nuclear p52 imaging, anti-LTβR-stimulated HeLa cells. The class given is cell-based, human. Particulars: Homo sapiens, anti-LTβR induced, mean ± SD. The method, then: The HeLa cell line was used to define the cellular selectivity of NIK inhibitors toward inhibition of classical vs. non-classical NF-κB signaling using high content cellular imaging assays. For the nuclear translocation assay p52 (non-canonical NF-κB signaling), HeLa cells were treated with different concentrations of compounds previously diluted in DMSO (final [DMSO] = 0.2% in all wells) in DMEM medium (10% FBS, 2 mM Glutamine) and then stimulated with 300 ng/mL of an anti-lymphotoxin beta receptor antibody for 4.5 h. In the REL-A nuclear translocation assay, HeLa cells were incubated with compounds for 4 h 50 min before stimulating them with 2 ng/mL TNF (R&D Systems) for 10 min. Cells were fixed with 4% paraformaldehyde, permeabilized by adding 0.1% Triton X-100 in phosphate buffered saline, and then are incubated with either 2 μg/mL anti-p52 antibody or 400 ng/mL anti-REL-A (p65) antibody. Finally, the cells are incubated with an Alexa488-labeled secondary antibody (Invitrogen) and DRAQ5 DNA stain (Biostatus). Imaging was carried out using an Opera reader (Perkin Elmer) and data were analyzed with Acapella software (Perkin Elmer). The p52 or REL-A translocation into the nucleus is quantified by the ratio of the nuclear to cytoplasmic signal intensity.

A further experiment addresses T1, Hyl (Homo sapiens, UniProt P42679).
T1 construct: purchased Invitrogen / ThermoFisher SelectScreen
Kind of experiment: SelectScreen kinase panel. In kind it is biochemical.

The target in the next experiment is T2, STK33 (Homo sapiens, UniProt Q9BYT3).
T2 construct: purchased Invitrogen / ThermoFisher SelectScreen
Kind of experiment: SelectScreen kinase panel. The class given is binding. The method, then:
(§1) The ability of NIK to catalyze the hydrolysis of adenosine-5′-triphosphate (ATP) was monitored using the Transcreener ADP (adenosine-5′-diphosphate) assay (Bell Brook Labs, Fitchburg, WI). Purified human NIK kinase domain (a.a. 340–694) (0.5 nM) or mouse NIK kinase domain (a.a. 329–675) (1 nM) derived from a baculovirus-infected insect cell expression system was incubated with test compounds for 0.5–2 h in 50 mM HEPES buffer (pH 7.2) containing 10 mM MgCl2, 2 mM dithiothreitol, 10 μM ATP, 0.01% Triton X-100, 0.1% gamma-globulins from bovine blood, 1% dimethylsulfoxide (DMSO), 7 μg/mL ADP antibody and 5 nM ADP-MR121 633 tracer. Reactions were quenched by the addition of 20 mM EDTA and 0.01% Brij 35. The tracer bound to the antibody was displaced by the ADP generated during the NIK reaction, which caused a decrease in fluorescence polarization that was measured by laser excitation at 633 nm with a Fluorescence Correlation Spectroscopy Plus reader (Evotec AG). Equilibrium dissociation constant (Ki) values for NIK inhibitors are calculated from plots of activity vs. inhibitor concentration using Morrison’s quadratic equation that accounts for the potential of tight binding, and by also applying the conversion factor that accounted for competitive inhibition and the concentration of substrate used in the assay relative to its Michaelis constant (Km). The Ki values with hPKD1 (PKCμ) were determined using the same assay conditions as for NIK. Ki measurements for hKHS1 and hLRRK2, as well as broad kinase selectivity profiling for SMI1, were carried out by Invitrogen using their SelectScreen kinase assay panel (ThermoFisher Scientific, Madison, WI). The vendor offered two types of kinase activity assays, a peptide phosphorylation assay (Z′-LYTE) and an ADP quantitation assay (Adapta), as well as one type of kinase ATP site competitive binding assay (LanthaScreen). See vendor web site for technology and protocol details for each specific kinase assay.
(§2) The average % Inhibition of each kinase is reported (Supplementary Table 1).

For the next experiment, the target named is T3, JNK2 (Homo sapiens, UniProt P45984).
T3 construct: purchased Invitrogen / ThermoFisher SelectScreen
Kind of experiment: SelectScreen kinase panel. In kind it is binding. The method, then:
as §1, §2

The target in another experiment is T4, WNK2 (Homo sapiens, UniProt Q9Y3S1).
T4 construct: purchased Invitrogen / ThermoFisher SelectScreen
Kind of experiment: SelectScreen kinase panel. The class given is binding. How it is done: as §1, §2

In another experiment the target is T5, MLK2 (Homo sapiens, UniProt Q02779).
T5 construct: purchased Invitrogen / ThermoFisher SelectScreen
Kind of experiment: SelectScreen kinase panel. The class given is binding. How it is done:
as §1, §2

The target in another experiment is T6, CAMKK1 (Homo sapiens, UniProt Q8N5S9).
T6 construct: purchased Invitrogen / ThermoFisher SelectScreen
Kind of experiment: SelectScreen kinase panel. In kind it is binding. The method, then: as §1, §2

The target of another experiment is T7, DRAK1 (Homo sapiens, UniProt Q9UEE5).
T7 construct: purchased Invitrogen / ThermoFisher SelectScreen
Kind of experiment: SelectScreen kinase panel. In kind it is binding. The method, then:
as §1, §2

Another experiment concerns the target T8, TGFBR1 (Homo sapiens, UniProt P36897).
T8 construct: purchased Invitrogen / ThermoFisher SelectScreen
Kind of experiment: SelectScreen kinase panel. In kind it is binding. How it is done: as §1, §2

For another experiment, the target named is T9, MYLK (Homo sapiens, UniProt Q15746).
T9 construct: purchased Invitrogen / ThermoFisher SelectScreen
Kind of experiment: SelectScreen kinase panel. The class given is binding. How it is done: as §1, §2

A further experiment deals with T10, RIPK2 (Homo sapiens, UniProt O43353).
T10 construct: purchased Invitrogen / ThermoFisher SelectScreen
Kind of experiment: SelectScreen kinase panel. In kind it is binding. How it is done:
as §1, §2

The target of another experiment is T11, MEK3 (Homo sapiens, UniProt P46734).
T11 construct: purchased Invitrogen / ThermoFisher SelectScreen
Kind of experiment: SelectScreen kinase panel. The class given is binding. How it is done:
as §1, §2

In another experiment the target is T12, ALK2 (Homo sapiens, UniProt Q04771).
T12 construct: purchased Invitrogen / ThermoFisher SelectScreen
Kind of experiment: SelectScreen kinase panel. In kind it is binding. How it is done: as §1, §2

In a further experiment the target is T13, TAK1-TAB1 (Homo sapiens, UniProt O43318).
T13 construct: purchased Invitrogen / ThermoFisher SelectScreen
Kind of experiment: SelectScreen kinase panel. In kind it is binding. How it is done:
as §1, §2

Another experiment has as its target T14, MYLK3 (Homo sapiens, UniProt Q32MK0).
T14 construct: purchased Invitrogen / ThermoFisher SelectScreen
Kind of experiment: SelectScreen kinase panel. The class given is binding. How it is done: as §1, §2

The target of another experiment is T15, RAF1 (Y340D, Y341D) (Homo sapiens, UniProt P04049, Y340D/Y341D).
T15 construct: purchased Invitrogen / ThermoFisher SelectScreen
Kind of experiment: SelectScreen kinase panel. The class given is binding. How it is done: as §1, §2

The target of another experiment is T16, B -Raf (Homo sapiens, UniProt P15056).
T16 construct: purchased Invitrogen / ThermoFisher SelectScreen
Kind of experiment: SelectScreen kinase panel. The class given is binding. The method, then: as §1, §2

In a further experiment the target is T17, CLK4 (Homo sapiens, UniProt Q9HAZ1).
T17 construct: purchased Invitrogen / ThermoFisher SelectScreen
Kind of experiment: SelectScreen kinase panel. In kind it is binding. How it is done:
as §1, §2

A further experiment deals with T18, LIMK1 (Homo sapiens, UniProt P53667).
T18 construct: purchased Invitrogen / ThermoFisher SelectScreen
Kind of experiment: SelectScreen kinase panel. The class given is binding. The method, then:
as §1, §2

The target of another experiment is T19, CDK8/cyclinC (Homo sapiens, UniProt P49336).
T19 construct: purchased Invitrogen / ThermoFisher SelectScreen
Kind of experiment: SelectScreen kinase panel. In kind it is binding. How it is done:
as §1, §2

The target in the next experiment is T20, NLK (Homo sapiens, UniProt Q9UBE8).
T20 construct: purchased Invitrogen / ThermoFisher SelectScreen
Kind of experiment: SelectScreen kinase panel. In kind it is binding. How it is done:
as §1, §2

The next experiment deals with T21, STK16 (Homo sapiens, UniProt O75716).
T21 construct: purchased Invitrogen / ThermoFisher SelectScreen
Kind of experiment: SelectScreen kinase panel. The class given is binding. The method, then:
as §1, §2

Another experiment concerns the target T22, DMPK (Homo sapiens, UniProt Q09013).
T22 construct: purchased Invitrogen / ThermoFisher SelectScreen
Kind of experiment: SelectScreen kinase panel. In kind it is binding. The method, then: as §1, §2

A further experiment deals with T23, ASK1 (Homo sapiens, UniProt Q99683).
T23 construct: purchased Invitrogen / ThermoFisher SelectScreen
Kind of experiment: SelectScreen kinase panel. The class given is binding. How it is done: as §1, §2

T21 sequence (O75716 whole entry): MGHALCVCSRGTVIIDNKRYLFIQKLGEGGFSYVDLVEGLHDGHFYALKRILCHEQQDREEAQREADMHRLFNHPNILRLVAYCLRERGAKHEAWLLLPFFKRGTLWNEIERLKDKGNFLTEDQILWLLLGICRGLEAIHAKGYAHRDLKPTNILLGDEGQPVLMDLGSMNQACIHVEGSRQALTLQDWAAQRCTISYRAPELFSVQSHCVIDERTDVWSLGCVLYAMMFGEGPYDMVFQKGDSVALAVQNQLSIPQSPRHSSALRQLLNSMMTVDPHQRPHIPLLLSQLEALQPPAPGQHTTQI
T2 sequence (Q9BYT3 whole entry): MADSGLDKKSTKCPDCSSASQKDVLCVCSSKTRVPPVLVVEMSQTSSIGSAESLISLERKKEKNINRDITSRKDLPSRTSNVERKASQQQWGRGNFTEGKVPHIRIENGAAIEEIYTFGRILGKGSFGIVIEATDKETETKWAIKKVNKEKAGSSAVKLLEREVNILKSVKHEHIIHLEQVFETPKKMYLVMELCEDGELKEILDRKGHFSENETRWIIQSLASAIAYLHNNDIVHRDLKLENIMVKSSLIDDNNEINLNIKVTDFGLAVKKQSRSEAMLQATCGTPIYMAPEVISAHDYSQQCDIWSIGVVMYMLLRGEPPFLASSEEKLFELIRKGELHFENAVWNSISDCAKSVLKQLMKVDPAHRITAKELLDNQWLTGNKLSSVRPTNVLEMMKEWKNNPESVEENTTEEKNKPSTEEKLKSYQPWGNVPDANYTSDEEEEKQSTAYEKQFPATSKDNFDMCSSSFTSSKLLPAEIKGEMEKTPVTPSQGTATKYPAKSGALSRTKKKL
T22 sequence (Q09013 whole entry): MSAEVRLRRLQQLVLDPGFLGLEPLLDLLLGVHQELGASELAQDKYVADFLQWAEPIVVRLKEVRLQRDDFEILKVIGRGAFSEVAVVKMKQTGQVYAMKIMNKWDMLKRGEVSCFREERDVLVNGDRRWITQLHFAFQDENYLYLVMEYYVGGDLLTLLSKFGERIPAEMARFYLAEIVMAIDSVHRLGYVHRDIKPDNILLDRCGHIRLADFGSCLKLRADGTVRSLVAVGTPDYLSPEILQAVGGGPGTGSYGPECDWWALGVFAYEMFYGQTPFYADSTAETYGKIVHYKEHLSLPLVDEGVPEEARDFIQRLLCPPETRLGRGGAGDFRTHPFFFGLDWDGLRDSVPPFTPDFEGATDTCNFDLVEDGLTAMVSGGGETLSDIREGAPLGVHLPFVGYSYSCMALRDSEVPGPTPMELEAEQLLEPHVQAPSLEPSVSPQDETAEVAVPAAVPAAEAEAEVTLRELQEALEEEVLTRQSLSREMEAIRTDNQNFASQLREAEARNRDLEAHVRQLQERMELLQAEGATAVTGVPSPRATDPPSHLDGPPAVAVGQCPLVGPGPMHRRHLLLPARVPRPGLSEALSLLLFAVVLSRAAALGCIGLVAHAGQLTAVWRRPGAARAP
T12 sequence (Q04771 21-509): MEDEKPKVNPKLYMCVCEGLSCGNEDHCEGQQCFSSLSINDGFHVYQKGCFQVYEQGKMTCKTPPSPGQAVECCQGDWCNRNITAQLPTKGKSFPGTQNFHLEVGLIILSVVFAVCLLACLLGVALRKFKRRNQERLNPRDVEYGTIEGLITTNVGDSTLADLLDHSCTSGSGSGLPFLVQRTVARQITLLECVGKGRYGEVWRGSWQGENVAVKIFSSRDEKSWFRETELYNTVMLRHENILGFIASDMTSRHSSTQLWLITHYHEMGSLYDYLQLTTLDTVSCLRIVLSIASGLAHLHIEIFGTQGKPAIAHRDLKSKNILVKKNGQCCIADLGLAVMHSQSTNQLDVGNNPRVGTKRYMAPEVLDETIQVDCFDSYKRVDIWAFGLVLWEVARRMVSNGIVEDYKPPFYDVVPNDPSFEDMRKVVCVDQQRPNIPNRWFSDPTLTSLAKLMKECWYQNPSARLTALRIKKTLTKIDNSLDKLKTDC
T6 sequence (Q8N5S9 whole entry): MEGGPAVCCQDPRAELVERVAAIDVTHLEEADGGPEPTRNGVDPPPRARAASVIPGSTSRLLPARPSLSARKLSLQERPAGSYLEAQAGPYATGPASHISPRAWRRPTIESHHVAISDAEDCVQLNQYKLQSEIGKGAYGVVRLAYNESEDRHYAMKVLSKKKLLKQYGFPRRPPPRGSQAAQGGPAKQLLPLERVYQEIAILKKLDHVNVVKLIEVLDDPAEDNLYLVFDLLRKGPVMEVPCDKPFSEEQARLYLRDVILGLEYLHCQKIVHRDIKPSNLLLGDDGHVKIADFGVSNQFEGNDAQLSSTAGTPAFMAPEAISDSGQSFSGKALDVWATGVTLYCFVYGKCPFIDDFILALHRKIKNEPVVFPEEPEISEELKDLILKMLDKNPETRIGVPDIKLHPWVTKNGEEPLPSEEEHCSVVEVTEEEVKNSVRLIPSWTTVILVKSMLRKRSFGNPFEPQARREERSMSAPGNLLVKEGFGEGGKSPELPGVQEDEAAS
T18 sequence (P53667 whole entry): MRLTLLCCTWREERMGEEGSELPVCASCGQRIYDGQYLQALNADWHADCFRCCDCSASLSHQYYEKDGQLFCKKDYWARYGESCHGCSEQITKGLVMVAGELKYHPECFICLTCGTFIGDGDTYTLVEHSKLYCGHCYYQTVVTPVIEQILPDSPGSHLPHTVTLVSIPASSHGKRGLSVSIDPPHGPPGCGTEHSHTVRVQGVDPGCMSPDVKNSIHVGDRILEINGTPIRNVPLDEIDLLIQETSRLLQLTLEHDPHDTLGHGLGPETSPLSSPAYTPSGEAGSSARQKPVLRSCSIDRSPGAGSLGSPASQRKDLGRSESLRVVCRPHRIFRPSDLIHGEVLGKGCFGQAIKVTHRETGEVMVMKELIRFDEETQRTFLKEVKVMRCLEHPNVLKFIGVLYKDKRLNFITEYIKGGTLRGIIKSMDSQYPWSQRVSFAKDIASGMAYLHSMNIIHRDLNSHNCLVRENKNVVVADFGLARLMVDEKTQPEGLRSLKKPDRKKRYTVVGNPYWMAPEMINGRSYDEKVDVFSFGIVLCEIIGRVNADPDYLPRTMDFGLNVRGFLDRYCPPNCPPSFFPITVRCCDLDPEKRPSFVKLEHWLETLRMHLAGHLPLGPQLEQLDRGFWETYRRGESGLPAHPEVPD
T13 sequence (O43318 with tags, fused parts or gaps limits assumed): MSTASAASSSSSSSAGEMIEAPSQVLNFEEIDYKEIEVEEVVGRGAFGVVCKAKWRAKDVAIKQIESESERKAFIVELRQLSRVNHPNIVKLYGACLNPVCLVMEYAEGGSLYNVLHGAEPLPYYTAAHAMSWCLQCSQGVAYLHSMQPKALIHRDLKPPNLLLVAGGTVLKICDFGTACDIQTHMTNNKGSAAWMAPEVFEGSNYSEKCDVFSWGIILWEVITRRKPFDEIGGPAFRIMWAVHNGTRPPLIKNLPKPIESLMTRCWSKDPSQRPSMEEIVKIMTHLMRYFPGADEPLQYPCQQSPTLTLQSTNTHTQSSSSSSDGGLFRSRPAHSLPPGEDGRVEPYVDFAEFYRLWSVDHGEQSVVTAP
T7 sequence (Q9UEE5 whole entry): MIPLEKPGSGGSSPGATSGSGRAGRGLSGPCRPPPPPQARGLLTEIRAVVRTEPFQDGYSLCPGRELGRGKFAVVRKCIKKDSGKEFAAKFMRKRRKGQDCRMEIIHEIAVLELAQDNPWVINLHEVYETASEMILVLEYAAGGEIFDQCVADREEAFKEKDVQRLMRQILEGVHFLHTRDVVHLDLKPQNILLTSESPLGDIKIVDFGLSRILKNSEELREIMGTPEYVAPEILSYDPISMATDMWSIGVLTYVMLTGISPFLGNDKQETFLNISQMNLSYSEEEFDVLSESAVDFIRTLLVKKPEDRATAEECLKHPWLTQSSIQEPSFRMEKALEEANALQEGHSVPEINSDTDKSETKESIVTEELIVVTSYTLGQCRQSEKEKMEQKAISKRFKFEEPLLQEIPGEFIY
T19 sequence (P49336 whole entry): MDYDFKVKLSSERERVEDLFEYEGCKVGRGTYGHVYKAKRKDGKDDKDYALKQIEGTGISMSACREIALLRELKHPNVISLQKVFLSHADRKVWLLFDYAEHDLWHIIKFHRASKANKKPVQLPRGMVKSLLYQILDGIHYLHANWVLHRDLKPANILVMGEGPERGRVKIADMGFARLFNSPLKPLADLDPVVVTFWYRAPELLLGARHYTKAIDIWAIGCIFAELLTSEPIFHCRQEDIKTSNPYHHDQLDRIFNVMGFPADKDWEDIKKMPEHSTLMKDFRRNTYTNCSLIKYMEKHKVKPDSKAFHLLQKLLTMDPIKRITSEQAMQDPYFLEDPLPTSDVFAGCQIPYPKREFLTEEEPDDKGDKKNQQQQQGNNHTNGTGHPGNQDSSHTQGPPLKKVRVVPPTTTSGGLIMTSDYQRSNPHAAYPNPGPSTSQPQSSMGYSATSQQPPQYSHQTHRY
T19 sequence (P24863 whole entry partner): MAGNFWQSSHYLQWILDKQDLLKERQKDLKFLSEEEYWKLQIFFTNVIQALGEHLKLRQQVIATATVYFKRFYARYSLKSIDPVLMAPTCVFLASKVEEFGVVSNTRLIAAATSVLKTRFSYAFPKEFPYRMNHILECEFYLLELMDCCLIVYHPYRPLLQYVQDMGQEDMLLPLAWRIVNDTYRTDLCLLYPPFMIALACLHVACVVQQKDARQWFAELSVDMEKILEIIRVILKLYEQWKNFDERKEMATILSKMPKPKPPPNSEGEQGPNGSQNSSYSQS
T11 sequence (P46734 whole entry): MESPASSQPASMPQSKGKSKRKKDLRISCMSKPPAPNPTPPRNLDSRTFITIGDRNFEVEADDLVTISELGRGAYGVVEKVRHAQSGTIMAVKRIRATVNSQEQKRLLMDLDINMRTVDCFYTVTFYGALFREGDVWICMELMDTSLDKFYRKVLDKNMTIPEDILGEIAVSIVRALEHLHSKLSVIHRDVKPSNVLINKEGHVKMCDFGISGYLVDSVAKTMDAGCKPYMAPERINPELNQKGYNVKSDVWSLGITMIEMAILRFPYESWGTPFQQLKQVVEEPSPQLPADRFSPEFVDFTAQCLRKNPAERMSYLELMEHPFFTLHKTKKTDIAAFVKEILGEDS

Usually IC50 stands for the concentration that gives 50% inhibition. A higher IC50 goes with a need for much substance. The term inhibition denotes the drop in the measured response relative to a control, in per cent. For `COc1cc(C(N)=O)nc(-c2cccc(C#C[C@]3(O)CCN(C)C3=O)c2)c1` [NIK SMI1], the IC50 in experiment [1] was 70 nM. Besides, the inhibition at 1 µM on Hyl was 4.5%; on STK33 it was 3.9%; on JNK2 it was 3%; against WNK2, 1.7%; against MLK2, 9.9%; on CAMKK1, -11.6%. Further, the inhibition at 1 µM on DRAK1 was 3.4%; on TGFBR1, -9.4%; against MYLK it was 7.5%; against RIPK2, -0.1%; at MEK3, 11.4%; against ALK2, 5.8%. Besides, the inhibition at 1 µM on TAK1-TAB1 was 31.1%; at MYLK3, 45.3%; against RAF1 (Y340D, Y341D), -1.5%; against B -Raf it was -0.3%; on CLK4, 13.7%; against LIMK1, 16.8%. Also, the inhibition at 1 µM against CDK8/cyclinC turned out to be 7.8%; on NLK, 4.2%; on STK16, 1%; at DMPK, 1.6%; against ASK1, 3.8%.

The record behind these values is PMC5766581, “NF-κB inducing kinase is a therapeutic target for systemic lupus erythematosus” (Nature Communications, 2018).
